Molecules are shown by their SMILES. Values after ≈ are worked out from the molar mass of the structure shown.

MIC data for 9 compounds are collected here from ChEMBL document CHEMBL5625248, “Identification of unique indolylcyanoethylenyl sulfonylanilines as novel structural scaffolds of potential antibacterial agents” (Eur J Med Chem, 2023).

Format in all cases: functional
The subject of test [1] is Escherichia coli. The test is described as follows: Antibacterial activity against Escherichia coli ATCC 25922 assessed as inhibition of bacterial growth incubated for 18 hrs by two fold broth microdilution assay. A general note: Dilution methods test growth across graded concentrations, often in twofold steps.
Test [2] has as its system Pseudomonas aeruginosa. Description: Antibacterial activity against Pseudomonas aeruginosa ATCC 27853 assessed as inhibition of bacterial growth incubated for 18 hrs by two fold broth microdilution assay.
For test [3], the system named is Staphylococcus aureus. Description: Antibacterial activity against Staphylococcus aureus ATCC 25923 assessed as inhibition of bacterial growth incubated for 18 hrs by two fold broth microdilution assay.
In test [4] the test system is Staphylococcus aureus. Description: Antibacterial activity against methicilin-resistant Staphylococcus aureus N315 assessed as inhibition of bacterial growth incubated for 18 hrs by two fold broth microdilution assay.
The next test concerns Klebsiella pneumoniae. Description: Antibacterial activity against Klebsiella pneumoniae assessed as inhibition of bacterial growth incubated for 18 hrs by two fold broth microdilution assay.
The test system of another test is Acinetobacter baumannii. Description: Antibacterial activity against Acinetobacter baumannii assessed as inhibition of bacterial growth incubated for 18 hrs by two fold broth microdilution assay.
Test [5] deals with Staphylococcus aureus. Description: Antibacterial activity against Staphylococcus aureus assessed as inhibition of bacterial growth incubated for 18 hrs by two fold broth microdilution assay.
The test system of test [6] is Escherichia coli. The test is described as follows: Antibacterial activity against Escherichia coli assessed as inhibition of bacterial growth incubated for 18 hrs by two fold broth microdilution assay.
Test [7] has as its system Staphylococcus aureus. The test is described as follows: Antibacterial activity against Staphylococcus aureus ATCC 29213 assessed as inhibition of bacterial growth incubated for 18 hrs by two fold broth microdilution assay.
In another test the test system is Enterococcus faecalis. Description: Antibacterial activity against Enterococcus faecalis assessed as inhibition of bacterial growth incubated for 18 hrs by two fold broth microdilution assay.
Test [8] concerns Pseudomonas aeruginosa. Description: Antibacterial activity against Pseudomonas aeruginosa assessed as inhibition of bacterial growth incubated for 18 hrs by two fold broth microdilution assay.

A word on the MIC: it is the smallest concentration in the dilution series that meets the test's criterion for growth inhibition. As for `CC(=O)Nc1ccc(S(=O)(=O)/C(C#N)=C/c2cn(Cc3ccc(Cl)c(Cl)c3)c3ccccc23)cc1`, the minimum inhibitory concentration (MIC) in the test with Escherichia coli [1] stood at 256 µg/mL (≈ 488 µM); in the test on Pseudomonas aeruginosa [2], 16 µg/mL (≈ 30.5 µM); with Staphylococcus aureus [3], 32 µg/mL (≈ 61 µM); in the test on Staphylococcus aureus [4] it was 256 µg/mL (≈ 488 µM); in the test with Klebsiella pneumoniae, 64 µg/mL (≈ 122 µM); in the test with Acinetobacter baumannii, 32 µg/mL (≈ 61 µM). Further, the MIC in the test on Staphylococcus aureus [5] was 128 µg/mL (≈ 244 µM); in the test with Escherichia coli [6] it was 128 µg/mL (≈ 244 µM); in the test with Staphylococcus aureus [7], 4 µg/mL (≈ 7.63 µM); in the test on Enterococcus faecalis it was 128 µg/mL (≈ 244 µM); in the test with Pseudomonas aeruginosa [8] it was 128 µg/mL (≈ 244 µM).
`CCCCn1cc(/C=C(\C#N)S(=O)(=O)c2ccc(N)cc2)c2ccccc21`: the MIC with Escherichia coli [1] turned out to be 4 µg/mL (≈ 10.5 µM); in the test with Pseudomonas aeruginosa [2], 4 µg/mL (≈ 10.5 µM); in the test with Staphylococcus aureus [3], 2 µg/mL (≈ 5.27 µM); in the test on Staphylococcus aureus [4] it was 256 µg/mL (≈ 675 µM); in the test with Klebsiella pneumoniae, 1 µg/mL (≈ 2.64 µM); in the test on Acinetobacter baumannii, 256 µg/mL (≈ 675 µM). For the same compound, the minimum inhibitory concentration (MIC) came out at 2 µg/mL (≈ 5.27 µM) with Staphylococcus aureus [5]; 4 µg/mL (≈ 10.5 µM) in the test with Escherichia coli [6]; 1 µg/mL (≈ 2.64 µM) in the test with Staphylococcus aureus [7]; 4 µg/mL (≈ 10.5 µM) in the test on Enterococcus faecalis; 2 µg/mL (≈ 5.27 µM) in the test with Pseudomonas aeruginosa [8].
With `N#C/C(=C\c1cn(CC2CCCC2)c2ccccc12)S(=O)(=O)c1ccc(N)cc1`, the minimum inhibitory concentration (MIC) worked out at 8 µg/mL (≈ 19.7 µM) in the test with Escherichia coli [1]; 64 µg/mL (≈ 158 µM) in the test on Pseudomonas aeruginosa [2]; 256 µg/mL (≈ 631 µM) in the test on Staphylococcus aureus [3]; 256 µg/mL (≈ 631 µM) in the test on Staphylococcus aureus [4]; 4 µg/mL (≈ 9.86 µM) in the test on Klebsiella pneumoniae; 32 µg/mL (≈ 78.9 µM) in the test with Acinetobacter baumannii. Further, the minimal inhibitory concentration (MIC) in the test with Staphylococcus aureus [5] amounted to 256 µg/mL (≈ 631 µM); with Escherichia coli [6], 256 µg/mL (≈ 631 µM); in the test with Staphylococcus aureus [7], 16 µg/mL (≈ 39.5 µM); in the test with Enterococcus faecalis, 32 µg/mL (≈ 78.9 µM); with Pseudomonas aeruginosa [8], 64 µg/mL (≈ 158 µM).
`CC(=O)Nc1ccc(S(=O)(=O)/C(C#N)=C/c2cn(Cc3ccc(F)cc3F)c3ccccc23)cc1`: the MIC in the test with Escherichia coli [1] stood at 32 µg/mL (≈ 65.1 µM); in the test with Pseudomonas aeruginosa [2] it was 64 µg/mL (≈ 130 µM); in the test with Staphylococcus aureus [3] it was 32 µg/mL (≈ 65.1 µM); in the test on Staphylococcus aureus [4], 64 µg/mL (≈ 130 µM); in the test on Klebsiella pneumoniae, 256 µg/mL (≈ 521 µM); with Acinetobacter baumannii, 16 µg/mL (≈ 32.6 µM). For the same compound, the minimal inhibitory concentration (MIC) in the test with Staphylococcus aureus [5] came to 8 µg/mL (≈ 16.3 µM); in the test with Escherichia coli [6] it was 128 µg/mL (≈ 260 µM); in the test with Staphylococcus aureus [7] it was 32 µg/mL (≈ 65.1 µM); with Enterococcus faecalis it was 256 µg/mL (≈ 521 µM); with Pseudomonas aeruginosa [8] it was 64 µg/mL (≈ 130 µM).
With `CC(=O)Nc1ccc(S(=O)(=O)/C(C#N)=C/c2cn(CC3CC3)c3ccccc23)cc1`, the MIC came to 32 µg/mL (≈ 76.3 µM) in the test on Escherichia coli [1]; 64 µg/mL (≈ 153 µM) in the test on Pseudomonas aeruginosa [2]; 64 µg/mL (≈ 153 µM) with Staphylococcus aureus [3]; 32 µg/mL (≈ 76.3 µM) with Staphylococcus aureus [4]; 64 µg/mL (≈ 153 µM) in the test with Klebsiella pneumoniae; 16 µg/mL (≈ 38.1 µM) in the test on Acinetobacter baumannii. The MIC with Staphylococcus aureus [5] turned out to be 256 µg/mL (≈ 610 µM); in the test on Escherichia coli [6], 16 µg/mL (≈ 38.1 µM); with Staphylococcus aureus [7] it was 64 µg/mL (≈ 153 µM); with Enterococcus faecalis, 64 µg/mL (≈ 153 µM); with Pseudomonas aeruginosa [8], 32 µg/mL (≈ 76.3 µM).
As to `CCn1cc(/C=C(\C#N)S(=O)(=O)c2ccc(NC(C)=O)cc2)c2ccccc21`, the minimal inhibitory concentration (MIC) in the test with Escherichia coli [1] stood at 128 µg/mL (≈ 325 µM); with Pseudomonas aeruginosa [2], 8 µg/mL (≈ 20.3 µM); with Staphylococcus aureus [3], 4 µg/mL (≈ 10.2 µM); with Staphylococcus aureus [4] it was 64 µg/mL (≈ 163 µM); with Klebsiella pneumoniae, 32 µg/mL (≈ 81.3 µM); in the test on Acinetobacter baumannii it was 64 µg/mL (≈ 163 µM). Moreover, the MIC in the test with Staphylococcus aureus [5] came to 128 µg/mL (≈ 325 µM); in the test with Escherichia coli [6] it was 128 µg/mL (≈ 325 µM); in the test with Staphylococcus aureus [7], 4 µg/mL (≈ 10.2 µM); in the test on Enterococcus faecalis, 16 µg/mL (≈ 40.7 µM); with Pseudomonas aeruginosa [8], 64 µg/mL (≈ 163 µM).
As to `CC(=O)Nc1ccc(S(=O)(=O)/C(C#N)=C/c2cn(Cc3ccc(Cl)cc3Cl)c3ccccc23)cc1`, the minimal inhibitory concentration (MIC) with Escherichia coli [1] was found to be 64 µg/mL (≈ 122 µM); in the test on Pseudomonas aeruginosa [2], 32 µg/mL (≈ 61 µM); with Staphylococcus aureus [3], 64 µg/mL (≈ 122 µM); in the test on Staphylococcus aureus [4], 64 µg/mL (≈ 122 µM); with Klebsiella pneumoniae, 4 µg/mL (≈ 7.63 µM); in the test with Acinetobacter baumannii, 8 µg/mL (≈ 15.3 µM). For the same compound, the MIC in the test on Staphylococcus aureus [5] is 16 µg/mL (≈ 30.5 µM); with Escherichia coli [6], 256 µg/mL (≈ 488 µM); in the test with Staphylococcus aureus [7], 8 µg/mL (≈ 15.3 µM); with Enterococcus faecalis it was 256 µg/mL (≈ 488 µM); with Pseudomonas aeruginosa [8], 64 µg/mL (≈ 122 µM).
`N#C/C(=C\c1cn(Cc2ccc(F)cc2F)c2ccccc12)S(=O)(=O)c1ccc(N)cc1`: the minimal inhibitory concentration (MIC) in the test on Escherichia coli [1] came out at 64 µg/mL (≈ 142 µM); in the test with Pseudomonas aeruginosa [2], 64 µg/mL (≈ 142 µM); with Staphylococcus aureus [3] it was 64 µg/mL (≈ 142 µM); in the test on Staphylococcus aureus [4] it was 256 µg/mL (≈ 570 µM); in the test on Klebsiella pneumoniae, 4 µg/mL (≈ 8.9 µM); in the test on Acinetobacter baumannii it was 16 µg/mL (≈ 35.6 µM). Also, the minimal inhibitory concentration (MIC) stood at 32 µg/mL (≈ 71.2 µM) in the test on Staphylococcus aureus [5]; 256 µg/mL (≈ 570 µM) with Escherichia coli [6]; 8 µg/mL (≈ 17.8 µM) in the test on Staphylococcus aureus [7]; 256 µg/mL (≈ 570 µM) in the test on Enterococcus faecalis; 64 µg/mL (≈ 142 µM) in the test with Pseudomonas aeruginosa [8].
Take `CCn1cc(/C=C(\C#N)S(=O)(=O)c2ccc(N)cc2)c2ccccc21`: the minimum inhibitory concentration (MIC) in the test with Escherichia coli [1] is 8 µg/mL (≈ 22.8 µM); in the test on Pseudomonas aeruginosa [2], 8 µg/mL (≈ 22.8 µM); in the test on Staphylococcus aureus [3], 64 µg/mL (≈ 182 µM); in the test on Staphylococcus aureus [4] it was 16 µg/mL (≈ 45.5 µM); in the test with Klebsiella pneumoniae, 8 µg/mL (≈ 22.8 µM); in the test with Acinetobacter baumannii, 1 µg/mL (≈ 2.85 µM). For the same compound, the minimal inhibitory concentration (MIC) is 1 µg/mL (≈ 2.85 µM) in the test on Staphylococcus aureus [5]; 8 µg/mL (≈ 22.8 µM) in the test on Escherichia coli [6]; 1 µg/mL (≈ 2.85 µM) in the test on Staphylococcus aureus [7]; 8 µg/mL (≈ 22.8 µM) with Enterococcus faecalis; 1 µg/mL (≈ 2.85 µM) in the test with Pseudomonas aeruginosa [8].
